According to US20200055839A1 (priority 2017, published 2020):

Tested on: NL-RLuc virus
Experiment: Inhibition of HIV replication (NL-RLuc virus, luciferase readout in MT-2 cells)
Assay type: cell-based
Conditions: Human immunodeficiency virus 1, MT2, 120 h, MT-2 cells infected with NL-RLuc virus, 5 days of incubation, 10% FBS, at least 2 experiments
Outline: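 EC50 derived via median effect equation from at least 2 experiments, using luciferase expression as virus-growth readout. Replication-competent NL-RLuc reporter virus (nef partly replaced by Renilla luciferase) infected MT-2 cells with serial compound dilutions; 5-day incubation in RPMI 1640 plus 10% FBS.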

In order of falling EC50:
1. Cc1ncc(-c2ccc(O[C@H](C)C(C)C)cn2)c(N2CCC(C)(C)CC2)c1[C@H](OC(C)(C)C)C(=O)O [Example 319, (2S)-2-(tert-butoxy)-2-[4′-(4,4-dimethylpiperidin-1-yl)-6′-methyl-5-{[(2R)-3-methylbutan-2-yl]oxy}-[2,3′-bipyridine]-5′-yl]acetic acid]  7 nM
2. Cc1ncc(-c2ccc(OC(C)C)cn2)c(N2CCC(C)(C)CC2)c1[C@H](OC(C)(C)C)C(=O)O [Example 314, (2S)-2-(tert-butoxy)-2-[4′-(4,4-dimethylpiperidin-1-yl)-6′-methyl-5-(propan-2-yloxy)-[2,3′-bipyridine]-5′-yl]acetic acid]  5 nM
3. CCCOc1ccc(-c2cnc(C)c([C@H](OC(C)(C)C)C(=O)O)c2N2CCC(C)(C)CC2)nc1 [Example 318, (2S)-2-(tert-butoxy)-2-[4′-(4,4-dimethylpiperidin-1-yl)-6′-methyl-5-propoxy-[2,3′-bipyridine]-5′-yl]acetic acid]  3 nM
4. CCCOc1ccc(CCOc2ccc(-c3cnc(C)c([C@H](OC(C)(C)C)C(=O)O)c3N3CCC(C)(C)CC3)nc2)cc1 [Example 325, (2S)-2-(tert-butoxy)-2-[4′-(4,4-dimethylpiperidin-1-yl)-6′-methyl-5-[2-(4-propoxyphenyl)ethoxy]-[2,3′-bipyridine]-5′-yl]acetic acid]  3 nM
5. Cc1ncc(-c2ccc(OCCC(C)C)cn2)c(N2CCC(C)(C)CC2)c1[C@H](OC(C)(C)C)C(=O)O [Example 315, (2S)-2-(tert-butoxy)-2-[4′-(4,4-dimethylpiperidin-1-yl)-6′-methyl-5-(3-methylbutoxy)-[2,3′-bipyridine]-5′-yl]acetic acid]  2 nM
6. Cc1ncc(-c2ccc(OCCC(C)(C)C)cn2)c(N2CCC(C)(C)CC2)c1[C@H](OC(C)(C)C)C(=O)O [Example 316, (2S)-2-(tert-butoxy)-2-[5-(3,3-dimethylbutoxy)-4′-(4,4-dimethylpiperidin-1-yl)-6′-methyl-[2,3′-bipyridine]-5′-yl]acetic acid]  2 nM
7. CCOc1ccc(CCOc2ccc(-c3cnc(C)c([C@H](OC(C)(C)C)C(=O)O)c3N3CCC(C)(C)CC3)nc2)cc1 [Example 320, (2S)-2-(tert-butoxy)-2-[4′-(4,4-dimethylpiperidin-1-yl)-5-[2-(4-ethoxyphenyl)ethoxy]-6′-methyl-[2,3′-bipyridine]-5′-yl]acetic acid]  2 nM
8. Cc1ncc(-c2ccc(OCCc3c(Cl)cccc3Cl)cn2)c(N2CCC(C)(C)CC2)c1[C@H](OC(C)(C)C)C(=O)O [Example 297, (2S)-2-(tert-butoxy)-2-{5-[2-(2,6-dichlorophenyl)ethoxy]-4′-(4,4-dimethylpiperidin-1-yl)-6′-methyl-[2,3′-bipyridine]-5′-yl}acetic acid]  1 nM
9. Cc1ncc(-c2ccc(OCCc3c(F)cc(F)cc3F)cn2)c(N2CCC(C)(C)CC2)c1[C@H](OC(C)(C)C)C(=O)O [Example 298, (2S)-2-(tert-butoxy)-2-[4′-(4,4-dimethylpiperidin-1-yl)-6′-methyl-5-[2-(2,4,6-trifluorophenyl)ethoxy]-[2,3′-bipyridine]-5′-yl]acetic acid]  1 nM
10. Cc1ncc(-c2ccc(OCCc3ccc(F)c(F)c3)cn2)c(N2CCC(C)(C)CC2)c1[C@H](OC(C)(C)C)C(=O)O [Example 299, (2S)-2-(tert-butoxy)-2-{5-[2-(3,4-difluorophenyl)ethoxy]-4′-(4,4-dimethylpiperidin-1-yl)-6′-methyl-[2,3′-bipyridine]-5′-yl}acetic acid]  1 nM
11. Cc1ccc(CCOc2ccc(-c3cnc(C)c([C@H](OC(C)(C)C)C(=O)O)c3N3CCC(C)(C)CC3)nc2)cc1 [Example 300, (2S)-2-(tert-butoxy)-2-[4′-(4,4-dimethylpiperidin-1-yl)-6′-methyl-5-[2-(4-methylphenyl)ethoxy]-[2,3′-bipyridine]-5′-yl]acetic acid]  1 nM
12. COc1cccc(CCOc2ccc(-c3cnc(C)c([C@H](OC(C)(C)C)C(=O)O)c3N3CCC(C)(C)CC3)nc2)c1 [Example 301, (2S)-2-(tert-butoxy)-2-[4′-(4,4-dimethylpiperidin-1-yl)-5-[2-(3-methoxyphenyl)ethoxy]-6′-methyl-[2,3′-bipyridine]-5′-yl]acetic acid]  1 nM
13. Cc1ncc(-c2ccc(OCCc3c(F)cccc3Cl)cn2)c(N2CCC(C)(C)CC2)c1[C@H](OC(C)(C)C)C(=O)O [Example 305, (2S)-2-(tert-butoxy)-2-{5-[2-(2-chloro-6-fluorophenyl)ethoxy]-4′-(4,4-dimethylpiperidin-1-yl)-6′-methyl-[2,3′-bipyridine]-5′-yl}acetic acid]  1 nM
14. Cc1ncc(-c2ccc(OCCc3ccc(F)c(Cl)c3)cn2)c(N2CCC(C)(C)CC2)c1[C@H](OC(C)(C)C)C(=O)O [Example 307, (2S)-2-(tert-butoxy)-2-{5-[2-(3-chloro-4-fluorophenyl)ethoxy]-4′-(4,4-dimethylpiperidin-1-yl)-6′-methyl-[2,3′-bipyridine]-5′-yl}acetic acid]  1 nM
15. Cc1ncc(-c2ccc(O[C@@H](C)C(C)C)cn2)c(N2CCC(C)(C)CC2)c1[C@H](OC(C)(C)C)C(=O)O [Example 311, (2S)-2-(tert-butoxy)-2-[4′-(4,4-dimethylpiperidin-1-yl)-6′-methyl-5-{[(2S)-3-methylbutan-2-yl]oxy}-[2,3′-bipyridine]-5′-yl]acetic acid]  1 nM
16. Cc1ncc(-c2ccc(OCC(C)C)cn2)c(N2CCC(C)(C)CC2)c1[C@H](OC(C)(C)C)C(=O)O [Example 312, (2S)-2-(tert-butoxy)-2-[4′-(4,4-dimethylpiperidin-1-yl)-6′-methyl-5-(2-methylpropoxy)-[2,3′-bipyridine]-5′-yl]acetic acid]  1 nM
17. CCCCOc1ccc(-c2cnc(C)c([C@H](OC(C)(C)C)C(=O)O)c2N2CCC(C)(C)CC2)nc1 [Example 313, (2S)-2-(tert-butoxy)-2-[5-butoxy-4′-(4,4-dimethylpiperidin-1-yl)-6′-methyl-[2,3′-bipyridine]-5′-yl]acetic acid]  1 nM
18. CCCCCOc1ccc(-c2cnc(C)c([C@H](OC(C)(C)C)C(=O)O)c2N2CCC(C)(C)CC2)nc1 [Example 317, (2S)-2-(tert-butoxy)-2-[4′-(4,4-dimethylpiperidin-1-yl)-6′-methyl-5-(pentyloxy)-[2,3′-bipyridine]-5′-yl]acetic acid]  1 nM
19. Cc1ncc(-c2ccc(OCCc3cc(F)cc(F)c3)cn2)c(N2CCC(C)(C)CC2)c1[C@H](OC(C)(C)C)C(=O)O [Example 323, (2S)-2-(tert-butoxy)-2-{5-[2-(3,5-difluorophenyl)ethoxy]-4′-(4,4-dimethylpiperidin-1-yl)-6′-methyl-[2,3′-bipyridine]-5′-yl}acetic acid]  1 nM
20. Cc1ncc(-c2ccc(OCCc3cccc(Cl)c3)cn2)c(N2CCC(C)(C)CC2)c1[C@H](OC(C)(C)C)C(=O)O [Example 308, (2S)-2-(tert-butoxy)-2-{5-[2-(3-chlorophenyl)ethoxy]-4′-(4,4-dimethylpiperidin-1-yl)-6′-methyl-[2,3′-bipyridine]-5′-yl}acetic acid]  0.7 nM
21. CCc1ccc(CCOc2ccc(-c3cnc(C)c([C@H](OC(C)(C)C)C(=O)O)c3N3CCC(C)(C)CC3)nc2)cc1 [Example 322, (2S)-2-(tert-butoxy)-2-[4′-(4,4-dimethylpiperidin-1-yl)-5-[2-(4-ethylphenyl)ethoxy]-6′-methyl-[2,3′-bipyridine]-5′-yl]acetic acid]  0.7 nM
22. Cc1ncc(-c2ccc(OCCc3ccccc3Cl)cn2)c(N2CCC(C)(C)CC2)c1[C@H](OC(C)(C)C)C(=O)O [Example 302, (2S)-2-(tert-butoxy)-2-{5-[2-(2-chlorophenyl)ethoxy]-4′-(4,4-dimethylpiperidin-1-yl)-6′-methyl-[2,3′-bipyridine]-5′-yl}acetic acid]  0.6 nM
23. Cc1ncc(-c2ccc(OCCc3ccccc3F)cn2)c(N2CCC(C)(C)CC2)c1[C@H](OC(C)(C)C)C(=O)O [Example 303, (2S)-2-(tert-butoxy)-2-[4′-(4,4-dimethylpiperidin-1-yl)-5-[2-(2-fluorophenyl)ethoxy]-6′-methyl-[2,3′-bipyridine]-5′-yl]acetic acid]  0.6 nM
24. Cc1ncc(-c2ccc(OCCc3ccc(F)cc3F)cn2)c(N2CCC(C)(C)CC2)c1[C@H](OC(C)(C)C)C(=O)O [Example 306, (2S)-2-(tert-butoxy)-2-{5-[2-(2,4-difluorophenyl)ethoxy]-4′-(4,4-dimethylpiperidin-1-yl)-6′-methyl-[2,3′-bipyridine]-5′-yl}acetic acid]  0.6 nM
25. Cc1ncc(-c2ccc(OCCc3cccc(F)c3)cn2)c(N2CCC(C)(C)CC2)c1[C@H](OC(C)(C)C)C(=O)O [Example 304, (2S)-2-(tert-butoxy)-2-[4′-(4,4-dimethylpiperidin-1-yl)-5-[2-(3-fluorophenyl)ethoxy]-6′-methyl-[2,3′-bipyridine]-5′-yl]acetic acid]  0.5 nM
26. Cc1ncc(-c2ccc(OCCc3ccc(F)cc3Cl)cn2)c(N2CCC(C)(C)CC2)c1[C@H](OC(C)(C)C)C(=O)O [Example 310, (2S)-2-(tert-butoxy)-2-{5-[2-(2-chloro-4-fluorophenyl)ethoxy]-4′-(4,4-dimethylpiperidin-1-yl)-6′-methyl-[2,3′-bipyridine]-5′-yl}acetic acid]  0.5 nM
27. Cc1ncc(-c2ccc(OCCCc3ccccc3)cn2)c(N2CCC(C)(C)CC2)c1[C@H](OC(C)(C)C)C(=O)O [Example 321, (2S)-2-(tert-butoxy)-2-[4′-(4,4-dimethylpiperidin-1-yl)-6′-methyl-5-(3-phenylpropoxy)-[2,3′-bipyridine]-5′-yl]acetic acid]  0.5 nM
28. Cc1ncc(-c2ccc(OCCc3ccc(Cl)cc3)cn2)c(N2CCC(C)(C)CC2)c1[C@H](OC(C)(C)C)C(=O)O [Example 309, (2S)-2-(tert-butoxy)-2-{5-[2-(4-chlorophenyl)ethoxy]-4′-(4,4-dimethylpiperidin-1-yl)-6′-methyl-[2,3′-bipyridine]-5′-yl}acetic acid]  0.4 nM
